# Results published in patent US7863414B2, “Methods of treatment and uses for CaMKII and its interaction with HDACs and calpain” (The Board of Regents of the University of Texas Systems, priority 2005, dated 2011).
# Entries after “also recorded” stand apart in the source; their conditions may differ.
# How the values were obtained:
# HDAC4-GFP = experiment: Cellomics high content assay, nuclear localization of HDAC4-GFP in COS cells transfected with activated CaMKII; format: cell-based; conditions: COS cells transfected with HDAC4-GFP and CaMKII; concentration range; fixed at 48 hrs; EC50 only in FIG. 12
# Description: The plates are incubated at room temperature for 60 minutes.
# [1] = tested on: neonatal rat ventricular myocytes (NRVMs); experiment: Cardiomyocyte hypertrophy in NRVMs; format: cell-based; conditions: data not shown
# Description: (§1) Cardiomyocyte culture and adenoviral infection. NRVMs were isolated from 1-2 day Sprague Dawley rats. For adenovirus production, cDNAs encoding FLAG-tagged HDAC4 wild-type or a mutant containing alanines in place of serines 246, 467 and 632 (S/A) were subcloned into the pACCMV vector and co-transfected with pJM17 into 293 cells. Primary lysates were used to re-infect 293 cells and viral plaques were obtained using the agar overlay method. The production of adenoviral GFP-HDAC5 was described previously 18. NRVMs were infected 24 h after plating, starved for 4 h, and stimulated with PE or Iso for the indicated time period. In experiments with kinase inhibitors, NRVMs were pretreated with the inhibitor 30 min prior stimulation. For assessing cardiomyocyte hypertrophy, NRVMs were starved for 24 h and stimulated with PE for another 24 hrs. Subcellular localization of Flag-HDAC4 and cardiomyocyte hypertrophy, as assessed by sarcomeric organization, was determined by indirect immunofluorescence.
# HDAC4 [2] = experiment: Nuclear export of Flag-HDAC4 in cardiomyocytes (NRVMs), immunofluorescence; format: cell-based, rat; conditions: for Nuclear export of HDAC4 induced by adrenergic agonist: Flag-HDAC4, PE or Iso 10 μmol/l, up to 4 hrs; for Effect of kinase inhibitor on PE-induced nuclear export of HDAC4: adenoviral Flag-HDAC4, inhibitor pretreatment 30 min, PE 4 hrs, Stauro 500 nmol/l, KN93 5 μmol/l, KN62 10 μmol/l, AIPII-2 500 nmol/l, Bis 2.5 μmol/l, Gö6976 200 nmol/l, H89 1 μmol/l
# Description: as §1
# (§2) Indirect Immunofluorescence. COS cells were grown on glass coverslips, fixed in paraformaldehyde (4%), permeabilized in 0.1% Triton-X-100 and blocked in PBS containing goat serum (5%). Primary antibodies against FLAG (monoclonal or rabbit; Sigma), Myc (polyclonal, A-14; Santa Cruz), or HA (polyclonal, Y-11; Santa Cruz) were used at a dilution of 1:200. Secondary antibodies conjugated to either fluoresceine or Texas Red (Vector Laboratories) were also used at a dilution of 1:200. Staining of NRVMs for sarcomeres was performed with an antibody directed against sarcomeric α-actinin (Sigma). All images were captured at a magnification of ×40.
# HDAC5 = experiment: Nuclear export of GFP-HDAC5 in cardiomyocytes (NRVMs); format: cell-based, rat; conditions: PE 4 hrs
# Description: as §1
# Indirect Immunofluorescence. COS cells were grown on glass coverslips, fixed in paraformaldehyde (4%), permeabilized in 0.1% Triton-X-100 and blocked in PBS containing goat serum (5%). Primary antibodies against FLAG (monoclonal or rabbit; Sigma), Myc (polyclonal, A-14; Santa Cruz), or HA (polyclonal, Y-11; Santa Cruz) were used at a dilution of 1:200. […]
# MEF2 = experiment: Reporter assay of endogenous MEF2 activity (3xMEF2-Luc) in NRVMs; format: cell-based, rat; conditions: ionomycin 0.25 μmol/l; for Effect on ionomycin-induced increase of endogenous MEF2 activity: NRVMs pretreated 30 min, Gö6976 200 nmol/l, KN93 2.5 μmol/l, KN62 5 μmol/l, CSA 1 μmol/l
# Description: Endogenous MEF2 activity in NRVMs. One day after plating, a MEF2 dependent luciferase reporter (3xMEF2-Luc)56, carrying three MEF2-DNA binding sites, was transfected into NRVMs using Lipofectamine plus (Invitrogen; Carlsbad, Calif.). To control for transfection efficiency NRVMs were cotransfected with a β-galactosidase reporter plasmid (pCMV-lacZ). Twenty-four hours after transfection, NRVMs were starved for 24 h, pretreated with kinase inhibitors or cyclosporine for 30 min and stimulated with ionomycin for 24 h. Luciferase and β-galactosidase levels were quantified employing the Luciferase Assay Kit (Promega) and the FluoReporter Kit (Molecular probes), respectively.
# HDAC4 [3] = experiment: Subcellular localization of HDAC4 in Cos cells with active CaMKIIδB mutants, leptomycin B treatment; format: cell-based; conditions: 12 hours
# Description: as §2, with “Cell culture and transfection assays. COS cells were maintained in DMEM with fetal bovine serum (10%), L-glutamine (2 mM), and penicillin-streptomycin. Transfection of COS cells was performed with Fugene 6 (Roche Molecular Biochemicals) according to manufacturer's instructions. Indirect” for “Indirect”
compound,measurement,setting,value
CN[C@@H]1C[C@H]2O[C@@](C)([C@@H]1OC)n1c3ccccc3c3c4c(c5c6ccccc6n2c5c31)C(=O)NC4 [staurosporine],Dose response of HDAC4-GFP nuclear localization (Nuc-Cyto),HDAC4-GFP,smooth dose response curves
CC(C)NCC(O)c1ccc(O)c(O)c1 (centres unmarked) [isoprenaline],Hypertrophic growth response,[1],evoked a hypertrophic growth response
same,Nuclear export of HDAC4 induced by adrenergic agonist,HDAC4 [2],time-dependent nuclear export
same,Nuclear export of HDAC4 induced by adrenergic agonist,HDAC4 [2]; listed as Iso,time-dependently induced nuclear export
CNC[C@H](O)c1cccc(O)c1 [phenylephrine],Hypertrophic growth response,[1],evoked a hypertrophic growth response
same,Nuclear export of HDAC5 in response to agonist,HDAC5,exported
same,Nuclear export of HDAC4 induced by adrenergic agonist,HDAC4 [2],time-dependent nuclear export
same,Nuclear export of HDAC4 induced by adrenergic agonist,HDAC4 [2]; listed as PE,time-dependently induced nuclear export
Cn1c2ccccc2c2c3c(c4c5ccccc5n(CCC#N)c4c21)C(=O)NC3 [Gö6976],Effect on ionomycin-induced increase of endogenous MEF2 activity,MEF2,did not affect
same,Effect of kinase inhibitor on PE-induced nuclear export of HDAC4,HDAC4 [2],did not affect
O=S(=O)(NCCNC/C=C/c1ccc(Br)cc1)c1cccc2cnccc12 [H89],Effect of kinase inhibitor on PE-induced nuclear export of HDAC4,HDAC4 [2],did not affect
CCC(=C/[C@H](C)C/C=C/C(C)=C/[C@@H](C)C(=O)[C@@H](C)[C@H](O)[C@@H](C)C/C(C)=C/C(=O)O)/C=C/[C@@H]1OC(=O)C=C[C@@H]1C [leptomycin B],Dose response of HDAC4-GFP nuclear localization (Nuc-Cyto),HDAC4-GFP,smooth dose response curves
same,Nuclear accumulation of HDAC4 after leptomycin B,HDAC4 [3]; absence or presence of constitutive nuclear active CaMKIIδb T287D/S332A,completely accumulated in the nucleus; also recorded: accumulates in the nucleus
same,Nuclear accumulation of HDAC4 after leptomycin B,HDAC4 [3]; presence of cytosolic active CaMKIIδb T287D/K328N/K329N or CaMKIIδb T287D,no accumulation
CN([C@@H](Cc1ccc(OS(=O)(=O)c2cccc3cnccc23)cc1)C(=O)N1CCN(c2ccccc2)CC1)S(=O)(=O)c1cccc2cnccc12 [KN62],Effect on ionomycin-induced increase of endogenous MEF2 activity,MEF2,blocked
same,Effect of kinase inhibitor on PE-induced nuclear export of HDAC4,HDAC4 [2],markedly reduced; also recorded: effective in blocking
COc1ccc(S(=O)(=O)N(CCO)c2ccccc2CN(C)C/C=C/c2ccc(Cl)cc2)cc1 [KN93],Effect on PE-induced nuclear export of HDAC5,HDAC5; KN93 5 μmol/l pretreatment,not affected; also recorded: not blocked
same,Effect on ionomycin-induced increase of endogenous MEF2 activity,MEF2,blocked
same,Effect of kinase inhibitor on PE-induced nuclear export of HDAC4,HDAC4 [2],markedly reduced; also recorded: effective in blocking
"C[C@H](CCC(=O)O)C[C@H](C)C[C@H](C)C(=O)/C=C(\O)[C@H](C)C[C@H](C)C/C=C/[C@@H](C)[C@@H](O)[C@@H](C)[C@@H](O)C[C@@H]1CC[C@@](C)([C@H]2CC[C@@](C)([C@@H](C)O)O2)O1 [Ionomycin, ionomycin]",Endogenous MEF2 activity (3xMEF2-Luc) after stimulation,MEF2; NRVMs,doubled
CN(C)CCCn1cc(C2=C(c3c[nH]c4ccccc34)C(=O)NC2=O)c2ccccc21 [bisindolylmaleimide I],Effect of kinase inhibitor on PE-induced nuclear export of HDAC4,HDAC4 [2],did not affect
autoctamide-2 related inhibitory peptide II [AIPII-2],Effect of kinase inhibitor on PE-induced nuclear export of HDAC4,HDAC4 [2],effective in blocking
same,Effect of kinase inhibitor on PE-induced nuclear export of HDAC4,HDAC4 [2]; listed as AIPII,markedly reduced
